What was measured:
[1] = AUC (0 to infinity) in Sprague-Dawley rat at 10 mg/kg, po; assay type: ADME, organism-based; set-up: dose 10 mg/kg, time infinity, route oral; conditions: in vivo
[2] = biological target: Vascular endothelial growth factor receptor 2 (Homo sapiens, UniProt P35968); experiment: biochemical; assay type: cell-based, Sf9
Description: Inhibition of recombinant GST-tagged VEGFR2 kinase domain (V789 to V1356) (unknown origin) expressed in insect Sf9 cells using polyGlu4:Tyr peptide as substrate after 120 mins by Kinase-Glo assay

[3] = system: Receptor-type tyrosine-protein kinase FLT3 (Homo sapiens), P36888 [UNDEFINED MUTATION]; conditions: MOLM-13
Description: Inhibition of FLT3 ITD heterozygous mutant in human MOLM-13 cells assessed as cell growth inhibition after 72 hrs by MTS assay

Aurora kinase A = biological target: T1, Aurora kinase A (Homo sapiens, UniProt O14965); experiment: biochemical
T1 sequence (O14965 whole entry): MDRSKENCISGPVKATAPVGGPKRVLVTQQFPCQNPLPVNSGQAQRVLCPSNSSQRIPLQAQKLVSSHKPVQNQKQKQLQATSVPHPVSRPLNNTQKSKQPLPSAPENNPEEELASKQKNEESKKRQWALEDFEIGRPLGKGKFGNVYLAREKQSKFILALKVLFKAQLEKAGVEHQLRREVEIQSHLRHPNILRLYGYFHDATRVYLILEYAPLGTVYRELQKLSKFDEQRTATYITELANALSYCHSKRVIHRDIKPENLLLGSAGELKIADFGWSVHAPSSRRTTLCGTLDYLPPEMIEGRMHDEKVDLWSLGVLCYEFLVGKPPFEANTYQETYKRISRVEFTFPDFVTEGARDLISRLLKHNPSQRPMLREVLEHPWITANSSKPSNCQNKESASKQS
Description: Inhibition of recombinant GST-tagged Aurora-A kinase domain (S123 to S401) (unknown origin) expressed in insect Sf9 cells using tetra(LRRASLG) peptide as substrate after 90 mins by Kinase-Glo assay

[4] = biological target: T2, Receptor-type tyrosine-protein kinase FLT3 (Homo sapiens, UniProt P36888); experiment: biochemical; assay type: cell-based, Sf9
T2 sequence (P36888 whole entry): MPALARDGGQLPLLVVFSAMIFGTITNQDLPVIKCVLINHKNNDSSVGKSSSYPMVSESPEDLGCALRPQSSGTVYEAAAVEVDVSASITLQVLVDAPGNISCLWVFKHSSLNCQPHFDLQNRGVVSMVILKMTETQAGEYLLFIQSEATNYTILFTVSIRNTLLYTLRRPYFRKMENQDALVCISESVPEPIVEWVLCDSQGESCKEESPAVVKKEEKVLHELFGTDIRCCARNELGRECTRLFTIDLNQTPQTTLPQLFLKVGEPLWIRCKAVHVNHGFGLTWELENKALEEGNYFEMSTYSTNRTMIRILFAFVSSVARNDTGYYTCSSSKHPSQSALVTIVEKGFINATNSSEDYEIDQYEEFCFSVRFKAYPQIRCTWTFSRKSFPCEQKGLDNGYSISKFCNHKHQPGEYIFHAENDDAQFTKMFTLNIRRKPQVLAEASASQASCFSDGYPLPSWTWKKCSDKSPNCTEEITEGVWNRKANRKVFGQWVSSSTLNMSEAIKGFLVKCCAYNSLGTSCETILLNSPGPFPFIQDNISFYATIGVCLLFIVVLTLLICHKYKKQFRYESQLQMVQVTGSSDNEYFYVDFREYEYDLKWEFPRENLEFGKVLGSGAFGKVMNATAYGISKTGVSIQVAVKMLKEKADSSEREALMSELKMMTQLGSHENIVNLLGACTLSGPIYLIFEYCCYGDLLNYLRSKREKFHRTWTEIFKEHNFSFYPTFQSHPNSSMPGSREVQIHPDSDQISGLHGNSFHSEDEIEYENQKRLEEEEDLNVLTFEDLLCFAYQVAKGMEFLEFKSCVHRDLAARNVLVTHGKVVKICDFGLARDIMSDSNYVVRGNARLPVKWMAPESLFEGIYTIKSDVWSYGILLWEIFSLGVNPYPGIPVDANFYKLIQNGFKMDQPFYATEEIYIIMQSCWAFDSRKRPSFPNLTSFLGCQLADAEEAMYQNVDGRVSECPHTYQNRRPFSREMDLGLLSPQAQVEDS
Description: Inhibition of wild type GST-tagged FLT3 kinase domain (Y567 to S993) (unknown origin) expressed in baculovirus infected insect Sf9 cells using Her2 peptide as substrate after 4 hrs by Kinase-Glo assay

[5] = Oral bioavailability in Sprague-Dawley rat at 10 mg/kg; assay type: ADME, organism-based; conditions: in vivo

Vascular endothelial growth factor receptor 2, sequence (P35968 whole entry): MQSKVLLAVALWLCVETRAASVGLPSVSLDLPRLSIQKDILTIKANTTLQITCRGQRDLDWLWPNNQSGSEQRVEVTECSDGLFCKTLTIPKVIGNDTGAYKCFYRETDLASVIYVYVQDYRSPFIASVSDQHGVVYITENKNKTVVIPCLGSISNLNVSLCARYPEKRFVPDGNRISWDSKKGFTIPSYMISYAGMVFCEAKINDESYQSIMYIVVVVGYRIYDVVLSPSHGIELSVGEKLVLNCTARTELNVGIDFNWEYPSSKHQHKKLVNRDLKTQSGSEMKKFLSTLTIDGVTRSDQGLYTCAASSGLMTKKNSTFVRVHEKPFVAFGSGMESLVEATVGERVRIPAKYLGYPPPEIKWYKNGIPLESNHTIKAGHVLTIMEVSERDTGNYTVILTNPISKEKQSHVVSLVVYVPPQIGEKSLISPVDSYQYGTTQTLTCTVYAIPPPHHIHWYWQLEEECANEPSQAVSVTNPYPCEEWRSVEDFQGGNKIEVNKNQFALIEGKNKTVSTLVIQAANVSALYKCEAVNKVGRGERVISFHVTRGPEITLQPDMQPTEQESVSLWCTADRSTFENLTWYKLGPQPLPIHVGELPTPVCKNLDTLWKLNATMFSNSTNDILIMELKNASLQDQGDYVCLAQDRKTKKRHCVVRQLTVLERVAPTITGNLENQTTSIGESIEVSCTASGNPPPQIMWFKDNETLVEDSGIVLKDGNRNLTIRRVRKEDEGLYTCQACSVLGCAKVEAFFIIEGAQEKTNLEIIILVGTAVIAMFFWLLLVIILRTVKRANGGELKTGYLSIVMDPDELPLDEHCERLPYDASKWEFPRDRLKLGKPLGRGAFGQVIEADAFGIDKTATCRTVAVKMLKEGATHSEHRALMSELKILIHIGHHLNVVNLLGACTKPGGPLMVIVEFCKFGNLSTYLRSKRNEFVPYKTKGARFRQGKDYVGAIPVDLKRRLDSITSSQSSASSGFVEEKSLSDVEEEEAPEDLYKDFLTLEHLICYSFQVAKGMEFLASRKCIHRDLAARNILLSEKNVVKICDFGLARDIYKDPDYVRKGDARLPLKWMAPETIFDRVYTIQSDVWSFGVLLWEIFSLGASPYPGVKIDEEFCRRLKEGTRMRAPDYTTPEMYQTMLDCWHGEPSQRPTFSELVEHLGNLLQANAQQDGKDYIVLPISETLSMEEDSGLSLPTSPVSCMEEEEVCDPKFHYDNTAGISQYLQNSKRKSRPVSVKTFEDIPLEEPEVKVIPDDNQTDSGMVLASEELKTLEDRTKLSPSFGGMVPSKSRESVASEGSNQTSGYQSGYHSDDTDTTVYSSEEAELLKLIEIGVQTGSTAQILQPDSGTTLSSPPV

SMILES	AUC(0-inf) [1]	IC50 [2]	GI50 [3]	IC50 (Aurora kinase A)	IC50 [4]	bioavailability [5]
CCc1cc(NC(=O)Nc2ccc(-c3cnc(Nc4cc(N5CCN(C)CC5)nc(C)n4)s3)cc2)no1	632 ng·h/mL	10 nM	3 nM	41 nM	49 nM	18%
Cc1cc(NC(=O)Nc2ccc(-c3cnc(NC(=O)c4ccc(OCCN5CCOCC5)cc4)s3)cc2)no1	–	370 nM	210 nM	25 nM	580 nM	–
CCN1CCN(c2cc(Nc3ncc(-c4ccc(NC(=O)c5ccccc5)cc4)s3)nc(C)n2)CC1	–	> 1000 nM	19 nM	140 nM	850 nM	–
CCN1CCN(c2cc(Nc3ncc(-c4ccc(NC(=O)Nc5ccc(Cl)cc5)cc4)s3)nc(C)n2)CC1	–	43 nM	9 nM	95 nM	320 nM	–
Cc1nc(Nc2ncc(-c3ccc(NC(=O)Nc4cc(C)on4)cc3)s2)cc(N2CCN(C)CC2)n1	313 ng·h/mL	15 nM	1 nM	56 nM	10 nM	10%
Cc1nc(Nc2ncc(-c3ccc(NC(=O)Nc4ccccc4)cc3)s2)cc(N2CCN(C)CC2)n1	–	160 nM	24 nM	> 10000 nM	79 nM	–
Cc1nc(Nc2ncc(-c3ccc(NC(=O)Nc4cccc(Cl)c4)cc3)s2)cc(N2CCNCC2)n1	–	31 nM	24 nM	270 nM	20 nM	–

Continued by falling GI50 [3], values first:

AUC(0-inf) [1]	IC50 [2]	GI50 [3]	IC50 (Aurora kinase A)	IC50 [4]	bioavailability [5]	SMILES
–	170 nM	140 nM	43 nM	520 nM	–	CCN1CCN(c2cc(Nc3ncc(-c4ccc(NS(=O)(=O)c5ccccc5)cc4)s3)nc(C)n2)CC1
–	53 nM	16 nM	150 nM	73 nM	–	Cc1nc(Nc2ncc(-c3ccc(NC(=O)Nc4ccccc4)cc3)s2)cc(N2CCC(N)CC2)n1
–	55 nM	14 nM	38 nM	22 nM	–	CCCCc1cc(NC(=O)Nc2ccc(-c3cnc(Nc4cc(N5CCN(C)CC5)nc(C)n4)s3)cc2)no1
66 ng·h/mL	120 nM	3 nM	320 nM	83 nM	–	CCN1CCN(c2cc(Nc3ncc(-c4ccc(NC(=O)OCc5ccccc5)cc4)s3)nc(C)n2)CC1
–	–	3 nM	–	–	–	CCc1cc(NC(=O)Nc2ccc(-c3cnc(Nc4cc(N5CCC(N)C5)nc(C)n4)s3)cc2)no1 (centres undefined)
–	15 nM	2 nM	36 nM	33 nM	–	CCN1CCN(c2cc(Nc3ncc(-c4ccc(NC(=O)Nc5cc(C6CC6)on5)cc4)s3)nc(C)n2)CC1

— ChEMBL document CHEMBL3593229, “Identification of a potent 5-phenyl-thiazol-2-ylamine-based inhibitor of FLT3 with activity against drug resistance-conferring point mutations” (Eur J Med Chem, 2015)
